According to US20210130316A1, “MORPHINAN DERIVATIVES AND COMPOSITIONS COMPRISING THE SAME FOR TREATING AUTOIMMUNE, IN[…] INFECTION RELATED DISORDERS” (TAIWANJ PHARMACEUTICALS CO., LTD, priority 2017, published 2021):

Assays:
HEK293 cells = test: Cell viability assay (MTT method); type: cell-based; details: compound 20 μM, percentage of viable LPS-stimulated cells
Description: HEK 293 cells (2.5-5.0×10^4 cells/well) were seeded in 96-well plate for overnight and treated with different compounds for 16-24 hours. Cell growth was determined by MTh-based colorimetric assays. Viability of the test cells treated with vehicle (0.5% DMSO) only was defined as 100% viable. Survival of cells after treatment with DETDs was calculated using the following formula:
Viable cell number (%)=OD570 (treated cell culture)/OD570 (vehicle control)×100.
The ell viability assay was performed by the MTT method. Cells were incubated with 45 μl of 5 mg/ml MTT for 1 hour at 37° C., and 150 μl of DMSO was added at the end of culture to dissolve the crystals. The signals of individual samples in 96-well plates were detected at O.D.570 nm with Molecular Device SpectraMax Imaging Cytometer. Cell viability was expressed in percentage of viable LPS-stimulated cells.

[1] = target: T1, Toll-like receptor 4 (TLR4) (Homo sapiens, UniProt O00206+Q9Y6Y9); test: NF-κB-inducible SEAP reporter assay of LPS-stimulated TLR4 activity in TLR4-expressing HEK293 cells; type: cell-based; details: for TLR-4 antagonist activity in words (summary of Table 3): 20 μM; for inhibition at 20 µM: compound 20 μM, LPS 10 ng/ml, 16-24 hours incubation, TLR4-expressing HEK293 cells, read-out: TLR-4 inhibition (%) Average
T1 construct: expressed in transfected cells; host or cells: HEK293
Description: Stimulation of the Toll-like receptor 4 (TLR4) was determined by assessing activation of the transcription factor NF-κB in HEK293 cells that were engineered to express TLR4. Assessment of TLR4 stimulation was based on the use of an NF-κB-inducible secreted alkaline phosphatase (SEAP) reporter system in which the SEAP reporter was under the control of a promoter inducible by NF-κB. Thus, the degree of activation of TLR4 can be indirectly quantified spectrophotometrically by measuring the amount of the SEAP reporter that is produced.
The TLR4-expressing cells were plated in HEK-Blue Detection (Invivogen, San Diego, Calif.) medium in a 96-well plate (25,000-50,000 cells/well). The cells were stimulated with lipopolysaccharides (LPS) alone or in combination with the compound of example 1. Cell culture without LPS and the compound of example 1 was defined as baseline control. To test whether the compound of example 1 could block that activation of the TLR4, the cells were treated with the compound of example 1 (20 μM) and LPS (final conc. 10 ng/ml/well). After a16-24 hours incubation period at 37° C. in a CO2 incubator, The signals of individual samples in 96-well plates were detected at O.D.650 nm with a Molecular Devices SpectraMax i3 Imaging Cytometer. The TLR4 activity was expressed in percentage of LPS alone-stimulated cells minus baseline control.

T1 sequence (O00206 24-839, species assumed): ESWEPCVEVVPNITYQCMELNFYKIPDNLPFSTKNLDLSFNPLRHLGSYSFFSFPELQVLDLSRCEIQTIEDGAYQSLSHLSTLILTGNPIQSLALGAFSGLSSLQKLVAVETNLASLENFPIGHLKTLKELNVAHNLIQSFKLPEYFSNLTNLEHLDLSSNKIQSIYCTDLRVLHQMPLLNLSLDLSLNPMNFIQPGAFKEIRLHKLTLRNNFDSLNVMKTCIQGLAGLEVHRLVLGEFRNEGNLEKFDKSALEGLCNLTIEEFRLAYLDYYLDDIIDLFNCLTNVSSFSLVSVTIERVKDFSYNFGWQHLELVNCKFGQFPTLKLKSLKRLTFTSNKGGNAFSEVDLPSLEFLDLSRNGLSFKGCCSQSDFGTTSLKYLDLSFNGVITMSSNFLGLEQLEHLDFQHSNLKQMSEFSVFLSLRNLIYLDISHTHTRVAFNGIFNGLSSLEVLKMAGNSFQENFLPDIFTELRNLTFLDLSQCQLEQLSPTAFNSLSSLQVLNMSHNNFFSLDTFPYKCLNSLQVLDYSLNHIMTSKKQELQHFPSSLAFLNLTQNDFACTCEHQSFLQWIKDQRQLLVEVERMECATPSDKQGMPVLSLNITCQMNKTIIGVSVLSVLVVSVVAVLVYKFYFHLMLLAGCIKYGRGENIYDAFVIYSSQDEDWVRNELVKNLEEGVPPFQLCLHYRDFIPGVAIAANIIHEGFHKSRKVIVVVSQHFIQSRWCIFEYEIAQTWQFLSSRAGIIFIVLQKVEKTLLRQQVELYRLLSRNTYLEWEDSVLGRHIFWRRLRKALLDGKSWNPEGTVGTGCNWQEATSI
T1 sequence (Q9Y6Y9 17-160 limits assumed, species assumed): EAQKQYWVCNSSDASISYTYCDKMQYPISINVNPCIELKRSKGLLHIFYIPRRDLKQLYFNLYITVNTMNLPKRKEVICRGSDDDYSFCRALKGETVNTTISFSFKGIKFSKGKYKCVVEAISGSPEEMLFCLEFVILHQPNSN

Row | Structure (SMILES) | Cell viability (%) Average (HEK293 cells) [%] | TLR-4 antagonist activity in words (summary of Table 3) [1] | inhibition at 20 µM [1] [%]
1 | COc1ccc2c(c1)[C@]13CCCC[C@@H]1[C@H](C2)N(c1ccc([N+](=O)[O-])c(N)c1)CC3 [Compound 5] | 110.9 | weak to negligible activity towards TLR-4 | 13.2
2 | Nc1ccc(N2CC[C@@]34CCCC[C@@H]3[C@@H]2Cc2ccc(O)cc24)nc1 [Compound 25] | 100.8 | weak to negligible activity towards TLR-4 | 13.3
3 | Nc1ccc(N2CC[C@@]34CCCC[C@@H]3[C@@H]2Cc2ccc(O)cc24)cc1 [Compound 4] | 92.2 | strong antagonists of TLR-4 | 90.5
4 | COc1ccc2c(c1)[C@]13CCCC[C@@H]1[C@H](C2)N(CC(O)CN1CCOCC1)CC3 (stereo partly drawn) [Compound 13] | 101.5 | weak to negligible activity towards TLR-4 | 2.8
5 | COc1ccc2c(c1)[C@]13CCCC[C@@H]1[C@H](C2)N(S(=O)(=O)c1ccc([N+](=O)[O-])cc1)CC3 [Compound 9] | 104.1 | moderate to mild inhibitory activity toward TLR-4 | 23.7
6 | CCOC(=O)Nc1ccc(N2CC[C@@]34CCCC[C@@H]3[C@@H]2Cc2ccc(OC)cc24)cc1 [Compound 7] | 79.3 | weak to negligible activity towards TLR-4 | 0
7 | Nc1cc(N2CC[C@@]34CCCC[C@@H]3[C@@H]2Cc2ccc(O)cc24)ccc1[N+](=O)[O-] [Compound 17] | 116.0 | remarkable inhibitions on TLR-4 | 53.1
8 | CC(C)N(c1ccc(N2CC[C@@]34CCCC[C@@H]3[C@@H]2Cc2ccc(O)cc24)cc1)C(C)C [Compound 19] | 99.2 | remarkable inhibitions on TLR-4 | 75.3
9 | COc1ccc2c(c1)[C@]13CCCC[C@@H]1[C@H](C2)N(c1ccc(NC(=O)CCCc2ccccc2)cc1)CC3 [Compound 8] | 104.7 | weak to negligible activity towards TLR-4 | 6
10 | O=[N+]([O-])c1ccc(N2CC[C@@]34CCCC[C@@H]3[C@@H]2Cc2ccc(O)cc24)nc1 [Compound 24] | 103.3 | moderate to mild inhibitory activity toward TLR-4 | 43.5
11 | CC(=O)Nc1ccc(S(=O)(=O)N2CC[C@@]34CCCC[C@@H]3[C@@H]2Cc2ccc(O)cc24)cc1 [Compound 15] | 104.0 | moderate to mild inhibitory activity toward TLR-4 | 45.1
12 | COc1ccc2c(c1)[C@]13CCCC[C@@H]1[C@H](C2)N(CC(O)CSc1ccccc1)CC3 (stereo partly drawn) [Compound 12] | 81.3 | remarkable inhibitions on TLR-4 | 59.1
13 | Nc1ccc(N2CC[C@@]34CCCC[C@@H]3[C@@H]2Cc2ccc(O)cc24)c(F)c1 [Compound 21] | 97.4 | weak to negligible activity towards TLR-4 | 13.8
14 | COc1ccc2c(c1)[C@]13CCCC[C@@H]1[C@H](C2)N(S(=O)(=O)c1ccc(N)cc1)CC3 [Compound 10] | 111.6 | moderate to mild inhibitory activity toward TLR-4 | 30
15 | O=[N+]([O-])c1ccc(N2CC[C@@]34CCCC[C@@H]3[C@@H]2Cc2ccc(O)cc24)cc1 [Compound 3] | 82.1 | weak to negligible activity towards TLR-4 | 0
16 | Nc1ccc(N2CC[C@@]34CCCC[C@@H]3[C@@H]2Cc2ccc(O)cc24)cc1N [Compound 18] | 143.0 | remarkable inhibitions on TLR-4 | 57.7
17 | CC(C)Nc1ccc(N2CC[C@@]34CCCC[C@@H]3[C@@H]2Cc2ccc(O)cc24)cc1 [Compound 20] | 89.9 | strong antagonists of TLR-4 | 99.8
18 | Nc1ccc(S(=O)(=O)N2CC[C@@]34CCCC[C@@H]3[C@@H]2Cc2ccc(O)cc24)cc1 [Compound 16] | 75.5 | moderate to mild inhibitory activity toward TLR-4 | 42.1
19 | COc1ccc2c(c1)[C@]13CCCC[C@@H]1[C@H](C2)N(c1ccc(N)cc1)CC3 [Compound 6] | 83.1 | moderate to mild inhibitory activity toward TLR-4 | 37.7
20 | Cc1cc(N2CC[C@@]34CCCC[C@@H]3[C@@H]2Cc2ccc(O)cc24)ccc1N [Compound 22] | 101.7 | remarkable inhibitions on TLR-4 | 64.2
21 | Nc1ccc(N2CC[C@@]34CCCC[C@@H]3[C@@H]2Cc2ccc(O)cc24)c(C(F)(F)F)c1 [Compound 23] | 96.2 | weak to negligible activity towards TLR-4 | 22.9
22 | COc1ccc2c(c1)[C@]13CCCC[C@@H]1[C@H](C2)N(CC(O)COc1ccccc1)CC3 (stereo partly drawn) [Compound 11] | 88.8 | remarkable inhibitions on TLR-4 | 54.5
